Data reported in PubChem BioAssay (NCI).
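Interpolation was linear, between the two tested concentrations surrounding the appropriate level; five concentrations were tested over 48 hours in 96-well plates. TGI: concentration producing complete growth inhibition.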

Legend:
Test in all cases: NCI tumour cell line growth inhibition, 48 h
[1] = system: LXFL 529 NSCLC
[2] = system: DLD-1 colon
[3] = system: XF 498 CNS
[4] = system: HOP-18 NSCLC
[5] = system: DMS 273 small cell lung

Measured: TGI

CC(C)C(=O)CC(c1ccc(Cl)cc1)N1N=C(C(C)C)CC1c1ccc(Cl)cc1 (stereo not given)
> 100 µM: [1]

N#CCCN(CCC#N)c1ccc(/C=C(\NC(=O)c2cc([N+](=O)[O-])ccc2Cl)C(=O)Nc2ccccc2)cc1
> 100 µM: [1] | [2] | [3] | [4] | [5]

CCCn1cc2c(SC)nc(SC)nc2n1
> 100 µM: [2] | [3] | [4] | [5]
